The text below walks through data of BindingDB's records for doi:10.1021/acs.jmedchem.8b01436 (University of New South Wales, 2019).

SMILES strings stand for the structures. Peptide text beside a SMILES is read from it.

This test in a line: Inhibition of (2S,8S,11S,14S)-2-(4-aminobutyl)-14-(3-guanidinopropyl)-8-(4-hydroxybenzyl)-11-(hydroxymethyl)-4,7,10,13,16,32-hexaoxo-36-((3aS,4S,6aR)-2-oxohexahydro-1H-thieno[3,4-d]imidazol-4-yl)-19,22,25,28-tetraoxa-3,6,9,12,15,31-hexaazahexatriacontan-1-oic acid binding to human Hsp72 SBD expressed in Escherichia coli BL21 (DE3) by Western.

Broadly, the IC50 is the concentration at which inhibition is half-maximal. Read a low IC50 as inhibition by little substance.

Take `C[C@H](NC(=O)[C@H](C)NC(=O)[C@H](CCCCN)NC(=O)[C@H](CCCNC(=N)N)NC(=O)[C@H](CO)NC(=O)[C@H](Cc1ccc(O)cc1)NC(=O)CNC(=O)[C@@H](N)CCCCN)C(=O)O` (H-KGYSRKAA-OH): the IC50 was 6.43 µM. In other words, the single-digit micromolar range.

With `N=C(N)NCCC[C@H](NC(=O)[C@H](CO)NC(=O)[C@H](Cc1ccc(O)cc1)NC(=O)CNC(=O)[C@@H](N)CCCCN)C(=O)N[C@@H](CCCCN)C(=O)O` (H-KGYSRK-OH), the IC50 came to 248 µM. This IC50 lies about 39-fold higher than the previous one.

`C[C@H](NC(=O)[C@H](CCCCN)NC(=O)[C@H](CCCNC(=N)N)NC(=O)[C@H](CO)NC(=O)[C@H](Cc1ccc(O)cc1)NC(=O)CNC(=O)[C@@H](N)CCCCN)C(=O)O` (H-KGYSRKA-OH) returned an IC50 of 70 µM.

Regarding `N=C(N)NCCC[C@H](NC(=O)[C@H](CO)NC(=O)[C@H](Cc1ccc(O)cc1)NC(=O)CNC(=O)[C@@H](N)CCCCN)C(=O)O` (H-KGYSR-OH), the IC50 amounted to 87.3 µM.
